# Measurements published in US20240197666A1, “DITERPENOID COMPOUNDS THAT ACT ON PROTEIN KINASE C (PKC)” (K-Gen Therapeutics, Inc., priority 2021, published 2024).
# pIC50: −log10 of the molar value.
# What was measured:
# [1] = test system: KP-4 (Pancreatic); assay: Proliferation of KP-4; assay type: cell-based; conditions: read-out: IC50 KP-4 (Pancreatic)
# Procedure, shortened: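 Proliferation was measured in the K-Ras mutant pancreatic lines and in HL-60 and Namalwa cells. These were plated at densities set per line and left 24 h before compound was added. After 96 h with serially diluted compound, viability was read by CellTiter Glo and IC50 derived.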
# [2] = test system: Hela cells; assay: In vitro scratch wound healing assay; assay type: cell-based; conditions: 24h
# Method: Scratch wound healing assay creates a gap by scratching a confluent monolayer of cells to mimic a wound and then measures the ability of cells to fill up the gap (wound) in the presence of DMSO or test compounds. 1.2-1.5×10^5 Hela cells in 1 mL media RPMI-1640 with 10% FBS were seeded in 24-well plates. Cells were starved for overnight in the same media without FBS when cells became confluent. After starvation, a scratch was made in the middle of the well and the plates were washed three times to remove detached cells. DMSO or different concentrations of compounds were diluted and added to the cells. The assay plates were put into Incucyte S3 and scanned with 4× scanner setting regularly. The imaging results were exported and the wound area was analyzed by ImageJ. Wound healing or closure was calculated by the following formula: wound healing %=(wound area at 0h−wound area at 24h)/wound area 0h*100%. Relative wound healing was calculated by dividing wound healing % of compound treatment to that of DMSO*100%.
# [3] = test system: Mino (Lymphoma); assay: Proliferation of Mino; assay type: cell-based; conditions: for pIC50: Homo sapiens, MINO, read-out: IC50 Mino (Lymphoma)
# Procedure, shortened: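 Luminescent ATP read-out (CellTiter Glo) after 96 h compound exposure gave % inhibition relative to DMSO-treated cells, from which IC50 was fitted. Seeding densities were line-specific, from 800 to 10000 cells/well. Potency across batches was normalised to reference compound K101.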
# [4] = test system: NFκB-driven transcription in HeLa-NFκB luciferase reporter cell line; assay: NFκB luciferase reporter assay; conditions: Homo sapiens, HeLa, 16 h, read-out: NFκB-luc HeLa cells EC50 (μM)
# [5] = test system: human PBMC cells; assay: Cytokine/chemokine gene expression in human PBMC (TaqMan); assay type: cell-based; conditions: 4 h;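 on Gene Relative Expression CCL2: 2^-ΔΔCt fold change vs DMSO control normalized to 18S and GAPDH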;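 on Gene Relative Expression GM-CSF: 2^-ΔΔCt fold change vs DMSO control normalized to 18S and GAPDH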;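 on Gene Relative Expression IFN-α: 2^-ΔΔCt fold change vs DMSO control normalized to 18S and GAPDH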;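 on Gene Relative Expression IFNγ: 2^-ΔΔCt fold change vs DMSO control normalized to 18S and GAPDH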
# Method: Each treatment condition was performed in duplicates.
smiles,measurement,setting,value
CC1=C[C@H]2[C@@]3(O)[C@H](C)C[C@]4(OC(=O)[C@@H](N)CC5CCCCC5)[C@H]([C@@H]3C=C(CO)C[C@]2(O)C1=O)C4(C)C,pIC50,[1],6.70 to 7.00
same,Relative wound healing to control (%),[2]; 30 nM,123%
same,Relative wound healing to control (%),[2]; 100 nM,351%
same,Relative wound healing to control (%),[2]; 300 nM,287%
same,ratio (IC50 of K101)/(IC50 of compound) Mino,[3],7.33
same,pIC50,[3],8.00 to 9.00
same,EC50,[4],0.03 to 0.06 µM
CC1=C[C@H]2[C@@]3(O)[C@H](C)C[C@]4(OC(=O)[C@@H](N)CCCCCCc5ccccc5)[C@H]([C@@H]3C=C(CO)C[C@]2(O)C1=O)C4(C)C,Gene Relative Expression CCL2,[5]; 0.01 μM,1.81
same,Gene Relative Expression GM-CSF,[5]; 0.01 μM,1.00
same,Gene Relative Expression IFN-α,[5]; 0.01 μM,0.73
same,Gene Relative Expression IFNγ,[5]; 0.01 μM,1.46
same,Gene Relative Expression IL-1β,[5]; 0.01 μM,0.38
same,Gene Relative Expression IL-2,[5]; 0.01 μM,1.32
same,Gene Relative Expression IL-6,[5]; 0.01 μM,0.57
same,Gene Relative Expression IL-8,[5]; 0.01 μM,0.44
same,Gene Relative Expression IL-10,[5]; 0.01 μM,1.59
same,Gene Relative Expression IL-12p40,[5]; 0.01 μM,0.34
same,Gene Relative Expression IL-12p70,[5]; 0.01 μM,1.05
same,Gene Relative Expression IL-13,[5]; 0.01 μM,0.37
same,Gene Relative Expression IL-18,[5]; 0.01 μM,0.63
same,Gene Relative Expression ISG15,[5]; 0.01 μM,0.94
same,Gene Relative Expression MIP1a (CCL3),[5]; 0.01 μM,1.29
same,Gene Relative Expression MX1,[5]; 0.01 μM,0.77
same,Gene Relative Expression OAS1,[5]; 0.01 μM,0.85
same,Gene Relative Expression TNF-α,[5]; 0.01 μM,1.34
same,Gene Relative Expression CCL2,[5]; 0.03 μM,6.53
same,Gene Relative Expression GM-CSF,[5]; 0.03 μM,1.88
same,Gene Relative Expression IFN-α,[5]; 0.03 μM,1.21
same,Gene Relative Expression IFNγ,[5]; 0.03 μM,1.49
same,Gene Relative Expression IL-1β,[5]; 0.03 μM,0.94
same,Gene Relative Expression IL-2,[5]; 0.03 μM,3.59
same,Gene Relative Expression IL-4,[5]; 0.03 μM,1.19
same,Gene Relative Expression IL-6,[5]; 0.03 μM,1.23
same,Gene Relative Expression IL-8,[5]; 0.03 μM,0.66
same,Gene Relative Expression IL-10,[5]; 0.03 μM,0.86
same,Gene Relative Expression IL-12p40,[5]; 0.03 μM,0.38
same,Gene Relative Expression IL-12p70,[5]; 0.03 μM,0.96
same,Gene Relative Expression IL-13,[5]; 0.03 μM,5.87
same,Gene Relative Expression IL-18,[5]; 0.03 μM,0.19
same,Gene Relative Expression ISG15,[5]; 0.03 μM,0.97
same,Gene Relative Expression MIP1a (CCL3),[5]; 0.03 μM,1.67
same,Gene Relative Expression MX1,[5]; 0.03 μM,0.65
same,Gene Relative Expression OAS1,[5]; 0.03 μM,0.55
same,Gene Relative Expression TNF-α,[5]; 0.03 μM,2.91
same,Gene Relative Expression CCL2,[5]; 0.10 μM,0.40
same,Gene Relative Expression GM-CSF,[5]; 0.10 μM,21.01
same,Gene Relative Expression IFN-α,[5]; 0.10 μM,0.80
same,Gene Relative Expression IFNγ,[5]; 0.10 μM,11.33
same,Gene Relative Expression IL-1β,[5]; 0.10 μM,3.00
same,Gene Relative Expression IL-2,[5]; 0.10 μM,4.98
same,Gene Relative Expression IL-4,[5]; 0.10 μM,2.78
same,Gene Relative Expression IL-6,[5]; 0.10 μM,6.15
same,Gene Relative Expression IL-8,[5]; 0.10 μM,0.44
same,Gene Relative Expression IL-10,[5]; 0.10 μM,0.12
same,Gene Relative Expression IL-12p70,[5]; 0.10 μM,0.74
same,Gene Relative Expression IL-13,[5]; 0.10 μM,121.59
same,Gene Relative Expression IL-18,[5]; 0.10 μM,0.05
same,Gene Relative Expression ISG15,[5]; 0.10 μM,1.57
same,Gene Relative Expression MIP1a (CCL3),[5]; 0.10 μM,4.95
same,Gene Relative Expression MX1,[5]; 0.10 μM,1.06
same,Gene Relative Expression OAS1,[5]; 0.10 μM,0.71
same,Gene Relative Expression TNF-α,[5]; 0.10 μM,6.52
same,pIC50,[1],8.00 to 9.00
same,Relative wound healing to control (%),[2]; 3 nM,162%
same,Relative wound healing to control (%),[2]; 10 nM,237%
same,Relative wound healing to control (%),[2]; 30 nM,267%
same,ratio (IC50 of K101)/(IC50 of compound) Mino,[3],52.2
same,pIC50,[3],8.00 to 9.00
same,EC50,[4],0.001 to 0.01 µM
